Values belong to the molecule of their own block, whether it stands above or below them. The source made the active and inactive calls. No cut-off for these calls is given here.
How the values were obtained:
[1] = Drug uptake in Sprague-Dawley rat brain at 1 mg/kg, iv measured after 1 to 24 hrs by LC-MS analysis; type: ADME, organism-based; conditions: in vivo, time 1-24 hrs
LSD1/CoREST complex = LSD1/CoREST complex (Homo sapiens, UniProt O60341); assay: Inhibition of human recombinant LSD1/CoREST using ART(mK)QTARKSTGGKAPRKQLAGGK-biotin as substrate incubated for 15 mins; type: protein-complex assay
[2] = biological target: P-glycoprotein (ABCB1, MDR1) (Homo sapiens, UniProt P08183); assay: Substrate activity at p-glycoprotein (unknown origin) expressed in pig LLC-PK1 cells coexpressing MDR1 assessed as efflux ratio at apparent permeability across basolateral to apical side to apparent permeability across apical to basolateral side at 1 uM measured after 1 hr by LC-MS/MS analysis; type: ADME, cell-based
Chain of P-glycoprotein (ABCB1, MDR1) (P08183 whole entry): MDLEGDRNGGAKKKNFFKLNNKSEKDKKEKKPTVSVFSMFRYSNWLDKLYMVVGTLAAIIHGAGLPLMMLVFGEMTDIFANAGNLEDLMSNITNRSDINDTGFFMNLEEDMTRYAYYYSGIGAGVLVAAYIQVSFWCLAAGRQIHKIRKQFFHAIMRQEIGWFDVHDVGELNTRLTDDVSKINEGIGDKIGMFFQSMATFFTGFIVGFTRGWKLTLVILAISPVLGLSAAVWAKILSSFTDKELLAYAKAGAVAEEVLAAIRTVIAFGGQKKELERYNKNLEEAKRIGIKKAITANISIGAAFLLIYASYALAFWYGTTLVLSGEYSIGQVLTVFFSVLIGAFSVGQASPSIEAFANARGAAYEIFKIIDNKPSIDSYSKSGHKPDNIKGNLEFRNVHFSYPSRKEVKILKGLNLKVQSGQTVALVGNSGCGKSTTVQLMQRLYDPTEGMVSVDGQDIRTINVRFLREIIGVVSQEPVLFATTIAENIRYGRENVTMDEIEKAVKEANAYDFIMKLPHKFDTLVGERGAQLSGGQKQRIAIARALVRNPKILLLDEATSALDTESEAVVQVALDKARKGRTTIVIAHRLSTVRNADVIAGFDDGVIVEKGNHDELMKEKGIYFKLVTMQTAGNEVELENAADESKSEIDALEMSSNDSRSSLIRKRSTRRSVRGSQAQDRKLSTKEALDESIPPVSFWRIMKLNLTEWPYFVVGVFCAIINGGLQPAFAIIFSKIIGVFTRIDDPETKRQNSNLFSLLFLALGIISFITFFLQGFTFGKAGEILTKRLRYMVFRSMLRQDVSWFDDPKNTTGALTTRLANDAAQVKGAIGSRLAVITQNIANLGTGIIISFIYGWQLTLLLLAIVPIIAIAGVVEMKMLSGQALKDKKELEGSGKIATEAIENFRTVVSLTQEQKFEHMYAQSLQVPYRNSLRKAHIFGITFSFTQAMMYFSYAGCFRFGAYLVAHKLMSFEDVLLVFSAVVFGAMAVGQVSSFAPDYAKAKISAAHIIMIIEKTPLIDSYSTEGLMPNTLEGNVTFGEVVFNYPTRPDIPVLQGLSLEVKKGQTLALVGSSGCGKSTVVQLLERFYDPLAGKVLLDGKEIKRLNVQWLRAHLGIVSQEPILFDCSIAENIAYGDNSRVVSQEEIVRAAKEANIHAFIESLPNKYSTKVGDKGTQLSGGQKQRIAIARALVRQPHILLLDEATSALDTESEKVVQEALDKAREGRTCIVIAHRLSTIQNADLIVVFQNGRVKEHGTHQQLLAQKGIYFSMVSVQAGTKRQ

[3] = Drug metabolism in Sprague-Dawley rat brain assessed as N-(6-fluoro-4-methylpyridin-3-yl)acetamide level in cortex at 10 mg/kg, iv measured after 4 hrs by HPLC-UV and LC/MS analysis; type: ADME, organism-based; conditions: in vivo
[4] = Drug metabolism in Sprague-Dawley rat brain assessed as N-(6-fluoro-4-methylpyridin-3-yl)acetamide level in cortex at 10 mg/kg, iv measured after 1 hr by HPLC-UV and LC/MS analysis; type: ADME, organism-based; conditions: in vivo
[5] = Drug metabolism in Sprague-Dawley rat brain assessed as 6-fluoronicotinic acid level in cortex at 10 mg/kg, iv measured after 1 hr by HPLC-UV and LC/MS analysis; type: ADME, organism-based; conditions: in vivo
[6] = Drug metabolism in Sprague-Dawley rat brain assessed as 6-fluoronicotinic acid formation in cortex at 10 mg/kg, iv measured after 4 hrs by HPLC-UV and LC/MS analysis; type: ADME, organism-based; conditions: in vivo
[7] = Drug uptake in rhesus monkey cerebellum administered intravenously and measured after 90 to 180 mins by PET/MRI imaging analysis; type: ADME, tissue-based, Macaca mulatta; conditions: in vivo, iv, time 90-180 min
[8] = Drug uptake in rhesus monkey caudate nucleus administered intravenously and measured after 90 to 180 mins by PET/MRI imaging analysis; type: ADME, tissue-based, Macaca mulatta; conditions: in vivo, iv, time 90-180 min
[9] = Drug uptake in rhesus monkey cerebellum administered intravenously pretreated with N-(4-[(1S,2R)/(1R,2S)-2-[(Cyclopropylmethyl)amino)cyclopropyl)phenyl)-6-fluoro-4-methylpyridine-3-carboxamide followed by compound addition and measured after 90 to 180 mins by PET/MRI imaging analysis; type: ADME, Macaca mulatta; conditions: in vivo, iv, time 90-180 min
[10] = Drug uptake in rhesus monkey anterior cingulate cortex administered intravenously and measured after 90 to 180 mins by PET/MRI imaging analysis; type: ADME, tissue-based, Macaca mulatta; conditions: in vivo, iv, time 90-180 min
[11] = Drug uptake in rhesus monkey frontal lobe administered intravenously and measured after 90 to 180 mins by PET/MRI imaging analysis; type: ADME, tissue-based, Macaca mulatta; conditions: in vivo, iv, time 90-180 min
[12] = Drug uptake in rhesus monkey pons administered intravenously and measured after 90 to 180 mins by PET/MRI imaging analysis; type: ADME, tissue-based, Macaca mulatta; conditions: in vivo, iv, time 90-180 min
[13] = Retention time of the compound by HPLC method; type: physicochemical
[14] = Drug metabolism in Sprague-Dawley rat brain assessed as N-(6-fluoropyridin-3-yl)-N-methylacetamide level in cortex at 1 mg/kg, iv measured after 4 hrs by HPLC-UV and LC/MS analysis; type: ADME, organism-based; conditions: in vivo
[15] = Drug metabolism in Sprague-Dawley rat brain assessed as N-(6-fluoropyridin-3-yl)-N-methylacetamide level in cortex at 1 mg/kg, iv measured after 1 hr by HPLC-UV and LC/MS analysis; type: ADME, organism-based; conditions: in vivo
[16] = Drug uptake in Sprague-Dawley rat brain at 1 mg/kg, iv measured after 4 hrs by LC-MS analysis; type: ADME, organism-based; conditions: in vivo, BLD = below limit of detection
[17] = Drug metabolism in cryopreserved rat hepatocytes assessed as N-acetylglucosamine conjugation-mediated metabolite formation measured for 6 hrs by HPLC-UV and LC/MS analysis; type: ADME, cell-based, Hepatocyte
[18] = AUC(0 to 6 hrs) in cynomolgus monkey at 0.1 mg/kg, iv by LC-MS/MS analysis; type: ADME, organism-based, Macaca fascicularis; parameters: dose 0.1 mg/kg, route iv; conditions: in vivo
[19] = Half life in cynomolgus monkey at 0.1 mg/kg, iv by LC-MS/MS analysis; type: ADME, organism-based, Macaca fascicularis; conditions: in vivo
[20] = Drug metabolism in cryopreserved monkey hepatocytes assessed as hydrolysis-mediated 6-fluoro-4-methylnicotinic acid formation measured for 6 hrs by HPLC-UV and LC/MS analysis; type: ADME, cell-based, Macaca mulatta, Hepatocyte; conditions: rhesus monkey
[21] = Drug metabolism in Sprague-Dawley rat brain assessed as fluorine-containing metabolite level in cortex at 10 mg/kg, iv measured after 1 to 4 hrs by HPLC-UV and LC/MS analysis; type: ADME, organism-based; conditions: in vivo, time 1-4 hrs
[22] = Drug concentration in cynomolgus monkey plasma at 0.1 mg/kg, iv measured after 5 mins by LC-MS/MS analysis; type: ADME, organism-based, Macaca fascicularis
[23] = Drug metabolism in cryopreserved monkey hepatocytes assessed as N-acetylglucosamine conjugation-mediated metabolite formation measured for 6 hrs by HPLC-UV and LC/MS analysis; type: ADME, cell-based, Macaca mulatta, Hepatocyte; conditions: rhesus monkey
[24] = Lipophilicity, logD of the compound at pH 7.4; type: physicochemical; conditions: buffer
[25] = Unbound drug concentration in cynomolgus monkey plasma assessed as free fraction ratio; type: ADME, cell-free, Macaca fascicularis
[26] = Drug metabolism in cryopreserved rat hepatocytes assessed as hydrolysis-mediated 6-fluoro-4-methylnicotinic acid formation measured for 6 hrs by HPLC-UV and LC/MS analysis; type: ADME, cell-based, Hepatocyte
[27] = Unbound drug concentration in Sprague-Dawley rat plasma assessed as free fraction ratio; type: ADME, cell-free
[28] = biological target: T1, Amine oxidase [flavin-containing] B (Homo sapiens, UniProt P27338); assay: Inhibition of MAO-B (unknown origin) incubated for 10 mins followed by MAO substrate addition and measured after 60 mins by luciferin-based luminescence assay
T1 sequence (P27338 whole entry): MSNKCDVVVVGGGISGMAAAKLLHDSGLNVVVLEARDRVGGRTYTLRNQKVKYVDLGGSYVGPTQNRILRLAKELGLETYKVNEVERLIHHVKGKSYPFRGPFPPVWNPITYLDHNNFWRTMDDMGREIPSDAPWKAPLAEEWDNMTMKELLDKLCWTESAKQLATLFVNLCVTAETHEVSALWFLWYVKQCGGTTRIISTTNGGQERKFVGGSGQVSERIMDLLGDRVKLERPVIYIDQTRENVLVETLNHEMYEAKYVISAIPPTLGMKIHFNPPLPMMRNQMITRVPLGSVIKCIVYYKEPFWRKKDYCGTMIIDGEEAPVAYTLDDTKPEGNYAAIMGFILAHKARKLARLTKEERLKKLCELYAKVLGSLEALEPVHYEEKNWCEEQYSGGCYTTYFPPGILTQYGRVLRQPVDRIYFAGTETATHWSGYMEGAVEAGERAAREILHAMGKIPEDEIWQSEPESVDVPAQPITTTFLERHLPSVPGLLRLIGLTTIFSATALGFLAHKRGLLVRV

[29] = Volume of distribution at steady state in cynomolgus monkey at 0.1 mg/kg, iv by LC-MS/MS analysis; type: ADME, organism-based, Macaca fascicularis; conditions: in vivo, read-out: Vdss
[30] = Total clearance in cynomolgus monkey at 0.1 mg/kg, iv by LC-MS/MS analysis; type: ADME, organism-based, Macaca fascicularis; conditions: in vivo
[31] = Unbound drug concentration in Sprague-Dawley rat brain homogenate assessed as free fraction ratio; type: ADME, tissue-based
[32] = Drug metabolism in cryopreserved human hepatocytes assessed as N-acetylglucosamine conjugation-mediated metabolite formation measured for 6 hrs by HPLC-UV and LC/MS analysis; type: ADME, cell-based, Hepatocyte
[33] = biological target: T2, Amine oxidase [flavin-containing] A (Homo sapiens, UniProt P21397); assay: Inhibition of MAO-A (unknown origin) incubated for 10 mins followed by MAO substrate addition and measured after 60 mins by luciferin-based luminescence assay
T2 sequence (P21397 whole entry): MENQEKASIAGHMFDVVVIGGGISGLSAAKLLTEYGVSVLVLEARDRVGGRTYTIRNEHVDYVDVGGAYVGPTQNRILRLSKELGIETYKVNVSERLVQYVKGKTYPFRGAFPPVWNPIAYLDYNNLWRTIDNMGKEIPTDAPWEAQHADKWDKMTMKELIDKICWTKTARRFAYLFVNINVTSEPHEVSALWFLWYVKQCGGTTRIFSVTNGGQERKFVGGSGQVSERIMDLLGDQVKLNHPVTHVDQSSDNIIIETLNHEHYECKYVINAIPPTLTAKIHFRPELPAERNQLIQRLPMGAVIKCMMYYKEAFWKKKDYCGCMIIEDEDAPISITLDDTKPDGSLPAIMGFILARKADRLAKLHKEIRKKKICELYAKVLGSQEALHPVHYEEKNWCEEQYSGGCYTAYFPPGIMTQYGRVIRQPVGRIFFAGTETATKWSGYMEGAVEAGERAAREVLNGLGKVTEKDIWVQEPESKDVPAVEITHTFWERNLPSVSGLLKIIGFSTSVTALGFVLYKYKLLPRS

[34] = Drug metabolism in cryopreserved human hepatocytes assessed as hydrolysis-mediated 6-fluoro-4-methylnicotinic acid formation measured for 6 hrs by HPLC-UV and LC/MS analysis; type: ADME, cell-based, Hepatocyte
[35] = biological target: Lysine-specific histone demethylase 1A (Homo sapiens) (UniProt O60341); assay: Binding affinity to human recombinant LSD1 assessed as compound-FAD adduct formation at 1 mM incubated for 1 hr by LC-MS analysis

- Drug metabolism [3]: 0.24 nmol/g
- Drug metabolism [4]: 0.1 nmol/g
- efflux ratio at 1 h, 1 µM [2]: 1.4
SMILES: Cc1cc(F)ncc1N(C)C(=O)c1ccc([C@@H]2C[C@H]2NCC2CC2)cc1
- IC50 (LSD1/CoREST complex): 0.0039 µM

- Drug metabolism [5]: 0.28 nmol/g
- Drug metabolism [6]: Metabolite_Notdetected
- efflux ratio at 1 h, 1 µM [2]: 0.8
SMILES: O=C(Nc1ccc([C@@H]2C[C@H]2NCC2CC2)cc1)c1ccc(F)nc1
- IC50 (LSD1/CoREST complex): 0.01 µM

- Drug uptake [7]: Active
- Drug uptake [8]: Active
- Drug uptake [9]: Not Active
- Drug uptake [10]: Active
- Drug uptake [11]: Active
- Drug uptake [12]: Active
SMILES: Cc1cc([18F])ncc1C(=O)Nc1ccc([C@@H]2C[C@H]2NCC2CC2)cc1

- Drug metabolism [14]: 1.16 nmol/g
- Drug metabolism [15]: 0.87 nmol/g
- Drug uptake [16]: Bld
SMILES: CN(C(=O)c1ccc([C@@H]2C[C@H]2NCC2CC2)cc1)c1ccc(F)nc1

- Retention_time [13]: 11.85 min
- Drug metabolism [17]: Metabolite_Notdetected
- AUC(0-t) [18]: 0.0516 µg·h/mL
- half-life [19]: 1.75 h
- Drug metabolism [20]: Metabolite_Notdetected
- Drug metabolism [21]: 0.21 nmol/g
- concentration at 5 min [22]: 0.0312 µg/mL
- Drug metabolism [23]: Metabolite_Detected
- logD [24]: 1.62
- Ratio [25]: 0.67
- Drug metabolism [26]: Metabolite_Notdetected
- Ratio [27]: 0.69
- IC50 [28]: 33 µM
- Vd [29]: 3.13 L/kg
- clearance [30]: 1.95 L/h/kg
- Ratio [31]: 0.277
- Drug metabolism [32]: Metabolite_Notdetected
- IC50 [33]: > 100 µM
- efflux ratio at 1 h, 1 µM [2]: 0.91
- Drug metabolism [34]: Metabolite_Notdetected
- Activity [35]: Active
SMILES: Cc1cc(F)ncc1C(=O)Nc1ccc([C@@H]2C[C@H]2NCC2CC2)cc1
- IC50 (LSD1/CoREST complex): 0.0072 µM

Continued, molecule first:

SMILES: CC(=O)N(C)c1ccc(F)nc1
- Drug uptake [1]: Active

SMILES: O=C(c1ccc([C@@H]2C[C@H]2NCC2CC2)cc1)N1CC(F)C1
- IC50 (LSD1/CoREST complex): 0.064 µM
- efflux ratio at 1 h, 1 µM [2]: 0.64

SMILES: Cc1cc(F)ncc1C(=O)O
- Retention_time [13]: 2.19 min

SMILES: CN(C(=O)c1ccc(CCC(=O)O)cc1)c1ccc(F)nc1
- Drug uptake [1]: Not Active

SMILES: O=C(c1ccc([C@@H]2C[C@H]2NCC2CC2)cc1)N1CCC(F)CC1
- IC50 (LSD1/CoREST complex): 0.024 µM
- efflux ratio at 1 h, 1 µM [2]: 0.66

SMILES: Cc1nc(F)ccc1N(C)C(=O)c1ccc([C@@H]2C[C@H]2NCC2CC2)cc1
- IC50 (LSD1/CoREST complex): 0.0054 µM
- efflux ratio at 1 h, 1 µM [2]: 1.3

From ChEMBL document CHEMBL5226336, “Design, Synthesis, and Evaluation of [18F]T-914 as a Novel Positron-Emission Tomography Tracer for Lysine-Specific Demethylase 1” (J Med Chem, 2021)
